In patent US20070208173A1, “CRYSTALLINE HYDRATES OF CEFDINIR CALCIUM SALT” (priority 2006, published 2007):

Experiments:
Format in all cases: physicochemical
Solubility in solvents = assay: Solubility in solvents
Method: (§1) Cefdinir, calcium salt pentahydrate is stable at temperatures between about 25° C. and about 55° C.

Stability to temperature = details: temperatures between about 25° C. and about 55° C.
Method: as §1

[1] = Moisture Sorption/Desorption
Method: as §1

Q: What does the source list for `C=CC1=C(C(=O)[O-])N2C(=O)[C@@H](NC(=O)/C(=N\O)c3csc(N)n3)[C@H]2SC1.C=CC1=C(C(=O)[O-])N2C(=O)[C@@H](NC(=O)/C(=N\O)c3csc(N)n3)[C@H]2SC1.O.O.O.O.O.[Ca+2]` (single isomer, unassigned) [Cefdinir, calcium salt pentahydrate, calcium (6R-(6α,7β(Z)))-7-(((2-amino-1,3-thiazol-4-yl)(hydroxyimino)acetyl)amino)-3-ethenyl-8-oxo-5-thia-1-azabicyclo[4.2.0]oct-2-ene-2-carboxylate (cefdinir, calcium salt, syn-isomer) pentahydrate]?
A: solubility in acetone (Solubility in solvents; acetone): less than 1 mg/mL; solubility in acetonitrile (Solubility in solvents; acetonitrile): less than 1 mg/mL; solubility in dichloromethane (Solubility in solvents; dichloromethane): less than 1 mg/mL; solubility in dimethylsulfoxide (Solubility in solvents; dimethylsulfoxide): greater than 96 mg/mL; solubility in ethanol (Solubility in solvents; ethanol): less than 1 mg/mL; solubility in methanol (Solubility in solvents; methanol): less than 1 mg/mL; solubility in water (Solubility in solvents; water): about 3 mg/mL; stability at temperature (Stability to temperature): stable; Weight ([1]; Time 0.1 min, 24.9 ° C., Rel. Humid. 51.63 (start)): 6.2888 mg; Weight ([1]; Time 32.6 min, 25.0 ° C., Rel. Humid. 4.83): 6.2448 mg; Weight ([1]; Time 48.6 min, 25.0 ° C., Rel. Humid. 14.82): 6.2605 mg; Weight ([1]; Time 61.7 min, 25.0 ° C., Rel. Humid. 24.85): 6.2704 mg; Weight ([1]; Time 74.6 min, 25.0 ° C., Rel. Humid. 34.82): 6.2782 mg; Weight ([1]; Time 87.6 min, 24.9 ° C., Rel. Humid. 44.75): 6.2849 mg; Weight ([1]; Time 100.6 min, 25.0 ° C., Rel. Humid. 54.93): 6.2910 mg; Weight ([1]; Time 113.6 min, 25.0 ° C., Rel. Humid. 64.86): 6.2957 mg; Weight ([1]; Time 125.2 min, 25.0 ° C., Rel. Humid. 74.81): 6.3005 mg; Weight ([1]; Time 138.9 min, 25.0 ° C., Rel. Humid. 84.80): 6.3064 mg; Weight ([1]; Time 220.7 min, 25.1 ° C., Rel. Humid. 94.58): 6.3638 mg; Weight ([1]; Time 241.5 min, 25.1 ° C., Rel. Humid. 85.41 (desorption)): 6.3265 mg; Weight ([1]; Time 256.2 min, 25.1 ° C., Rel. Humid. 75.18 (desorption)): 6.3087 mg; Weight ([1]; Time 271.2 min, 25.1 ° C., Rel. Humid. 65.07 (desorption)): 6.3015 mg; Weight ([1]; Time 284.1 min, 25.1 ° C., Rel. Humid. 55.11 (desorption)): 6.2965 mg; Weight ([1]; Time 300.4 min, 25.1 ° C., Rel. Humid. 45.16 (desorption)): 6.2899 mg; Weight ([1]; Time 313.1 min, 25.1 ° C., Rel. Humid. 35.08 (desorption)): 6.2827 mg; Weight ([1]; Time 326.1 min, 25.0 ° C., Rel. Humid. 25.12 (desorption)): 6.2745 mg; Weight ([1]; Time 338.7 min, 25.0 ° C., Rel. Humid. 15.13 (desorption)): 6.2650 mg; Weight ([1]; Time 360.9 min, 25.0 ° C., Rel. Humid. 5.03 (desorption)): 6.2484 mg
